# Tested on: rabbit pupil
# Assay: Rabbit pupil constriction after single eye drop (Test Example 1)
# Type: in vivo, New Zealand rabbit
# Conditions: rabbits, Test Example 1 solutions
# Description: Except for group 5), the eye drop solutions of groups 1) to 12) described above contained an equimolar concentration of pilocarpine. The molar concentration of pilocarpine in the eye drop solution of group 5) was half of the molar concentration of pilocarpine in the solutions of the other 11 groups.
# The effects of the eye drop solutions of groups 1) to 12) prepared above on rabbit pupil constriction and irritation were tested separately.
# • Species and strain: New Zealand rabbit • Grade: normal • Source: Qinglongshan Animal Breeding Farm, Jiangning District, Nanjing • Production license No.: SCXK (Su) 2016-0008 • Animal age: about 110 days old at the time of administration • Animal body weight: about 2.5-3.5 kg at the time of administration • Animal sex: all male • Feed: rabbit pellet feed • Housing conditions: air-conditioned room, with a temperature of 18-26° C. and a relative humidity of 40%-80%.
# • Digital vernier caliper: specification: 0-150 mm; measurement accuracy: 0.01 mm; manufacturer: Guilin Guanglu Measuring Instrument Co., Ltd.
# Each rabbit was subjected to eye drop administration in the left eye (using a pipette), with an administration volume of 100 μL.
# • Number of animals: for JQ series compounds, 6 rabbits per compound; for compounds 1, 2 and 4, 5 rabbits per compound. • Administration schedule: single administration. Measurement indicators and time points: • for JQ series compounds, the pupil diameter of the left eye of the rabbits was measured at time points of −0.5 h (i.e., half an hour before administration), 5 min, 10 min, 15 min, 0.5 h, 3 h and 4 h relative to administration, with the measurement repeated 3 times for each rabbit at each time point (measurement time points were extended if necessary); • for compounds 1, 2 and 4, the pupil diameter of the left eye of the rabbits was measured at time points of 3 h and 4 h relative to administration, with the measurement repeated 3 times for each rabbit at each time point (measurement time points were extended if necessary).
# Percentage change in pupil diameter (%) after administration=(pupil diameter after administration−pupil diameter before administration)/pupil diameter before administration×100%
# The measurement result for each rabbit at each time point was represented by the average value of three measurements.
row,SMILES,pupil constriction (miosis) effect at 3 h after administration
1,CC[C@@H]1C(=O)OC[C@@H]1Cc1cncn1C [Compound 1],still showed miosis effect
2,CC[C@@H]1C(=O)OC[C@@H]1Cc1cncn1C [Compound 2],still showed miosis effect
